One series has as its target Glutamate receptor 2 (Homo sapiens, UniProt P42262). The experiment in a line: Displacement of [3H]AMPA from homomeric recombinant GluA2 receptor (unknown origin).
Series [1] addresses Glutamate receptor ionotropic, kainate 1 (Homo sapiens, UniProt P39086). The experiment in a line: Displacement of [3H]ATPA from human Gluk1 receptor. Background: In a radioligand displacement assay an active substance lowers the binding of a labelled ligand.
For series [2], the system named is Rattus norvegicus. The series can be described thus: Analgesic activity in rat assessed as reversal of carrageenan-induced thermal hyperalgesia at 10 mg/kg, sc after 30 to 40 mins relative to vehicle-treated control. Particulars: route subcutaneous. It is filed as functional.
In series [3] the test system is Rattus norvegicus. The experiment in a line: Toxicity in Sprague-Dawley rat assessed as ataxia at 5 to 10 mg/kg, po by rotarod test. It is filed as organism-based. Also on record: dose 5-10 mg/kg, route oral. Particulars: in vivo. (In general: In the rotarod test animals must keep their balance on a rotating rod.)
Series [4] relates to Rattus norvegicus. The experiment in a line: Toxicity in Sprague-Dawley rat assessed as sedation at 5 to 10 mg/kg, po by rotarod test. Conditions: in vivo. In kind it is organism-based. On the set-up: dose 5-10 mg/kg, route oral.
Series [5] concerns Rattus norvegicus. The experiment in a line: Analgesic activity in po dosed Sprague-Dawley rat assessed as reversal of formalin-induced late-phase paw-licking behavior after 1 hr. In kind it is functional. Particulars: read-out: MED.
Series [6] is described as follows: Oral bioavailability in rat at 5 mg/kg. It is filed as ADME, organism-based. Conditions: in vivo.
For series [7], the system named is Rattus norvegicus. The experiment in a line: Analgesic activity in po dosed rat assessed as reversal of carrageenan-induced thermal hyperalgesia after 60 mins. Particulars: 1 h, read-out: MED. In kind it is functional.
A short description of series [8]: Plasma concentration in rat at 5 mg/kg, po after 1 hr. In kind it is ADME, organism-based. On the set-up: dose 5 mg/kg, route oral.

pKi: −log10 of the molar value.

Glutamate receptor 2, sequence (P42262 whole entry): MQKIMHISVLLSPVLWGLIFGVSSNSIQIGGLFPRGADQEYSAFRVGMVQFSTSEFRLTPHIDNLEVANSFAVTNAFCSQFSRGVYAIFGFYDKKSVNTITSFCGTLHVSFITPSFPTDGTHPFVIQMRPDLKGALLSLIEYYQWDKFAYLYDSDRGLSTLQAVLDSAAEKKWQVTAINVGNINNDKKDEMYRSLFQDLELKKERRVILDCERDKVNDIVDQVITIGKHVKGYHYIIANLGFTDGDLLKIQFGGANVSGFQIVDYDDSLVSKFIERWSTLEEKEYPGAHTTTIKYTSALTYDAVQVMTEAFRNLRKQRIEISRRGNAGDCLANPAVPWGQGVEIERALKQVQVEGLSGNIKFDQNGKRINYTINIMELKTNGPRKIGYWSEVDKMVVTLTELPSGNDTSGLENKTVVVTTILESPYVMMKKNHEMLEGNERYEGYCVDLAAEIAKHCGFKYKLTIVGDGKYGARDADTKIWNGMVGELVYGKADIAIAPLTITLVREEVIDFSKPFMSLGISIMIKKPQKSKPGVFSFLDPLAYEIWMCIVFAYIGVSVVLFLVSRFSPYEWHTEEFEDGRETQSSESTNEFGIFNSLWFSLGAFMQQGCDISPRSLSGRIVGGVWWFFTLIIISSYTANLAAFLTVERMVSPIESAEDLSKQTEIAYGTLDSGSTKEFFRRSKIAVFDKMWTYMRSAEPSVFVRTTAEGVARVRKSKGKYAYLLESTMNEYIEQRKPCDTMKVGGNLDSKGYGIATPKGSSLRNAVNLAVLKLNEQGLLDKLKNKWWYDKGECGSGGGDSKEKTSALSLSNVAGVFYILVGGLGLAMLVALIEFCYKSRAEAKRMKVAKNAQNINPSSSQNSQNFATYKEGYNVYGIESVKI
Glutamate receptor ionotropic, kainate 1, sequence (P39086 whole entry): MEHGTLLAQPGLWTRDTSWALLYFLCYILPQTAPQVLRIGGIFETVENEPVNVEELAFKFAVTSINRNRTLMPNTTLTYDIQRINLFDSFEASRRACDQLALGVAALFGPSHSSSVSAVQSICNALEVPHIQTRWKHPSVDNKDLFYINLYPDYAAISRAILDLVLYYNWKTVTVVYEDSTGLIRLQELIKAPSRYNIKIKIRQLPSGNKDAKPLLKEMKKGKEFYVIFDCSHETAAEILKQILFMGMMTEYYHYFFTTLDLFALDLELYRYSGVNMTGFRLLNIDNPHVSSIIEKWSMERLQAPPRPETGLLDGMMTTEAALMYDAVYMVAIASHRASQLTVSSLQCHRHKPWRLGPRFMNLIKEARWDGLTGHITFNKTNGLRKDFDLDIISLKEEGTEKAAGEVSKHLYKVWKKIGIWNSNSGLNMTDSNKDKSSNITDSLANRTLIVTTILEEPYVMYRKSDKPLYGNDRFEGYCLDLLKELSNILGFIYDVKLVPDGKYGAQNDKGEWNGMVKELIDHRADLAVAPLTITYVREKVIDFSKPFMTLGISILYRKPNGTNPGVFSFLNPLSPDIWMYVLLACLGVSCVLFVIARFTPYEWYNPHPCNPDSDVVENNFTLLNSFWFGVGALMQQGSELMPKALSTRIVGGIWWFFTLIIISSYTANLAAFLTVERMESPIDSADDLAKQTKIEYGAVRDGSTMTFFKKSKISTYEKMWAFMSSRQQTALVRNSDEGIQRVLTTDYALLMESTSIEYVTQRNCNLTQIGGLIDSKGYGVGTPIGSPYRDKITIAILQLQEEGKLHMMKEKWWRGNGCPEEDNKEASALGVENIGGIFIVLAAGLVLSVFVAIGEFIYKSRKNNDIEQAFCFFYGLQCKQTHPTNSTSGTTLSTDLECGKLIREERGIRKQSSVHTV

For the molecule `O=C(O)[C@@H]1C[C@H]2C[C@@H](Oc3cc(-c4ccccc4Cl)ccc3-c3nnn[nH]3)CC[C@H]2CN1`, the pKi at Glutamate receptor 2 is 4.89; in [1], 6.00.
Consider `Cl.O=C(O)[C@@H]1C[C@H]2C[C@@H](Sc3ccccc3-c3nnn[nH]3)CC[C@H]2CN1`, for which the Activity in the series with Rattus norvegicus [2] was 52.6%. The pKi is 4.66 on Glutamate receptor 2 and 6.22 in series [1].
On to `O=C(O)[C@@H]1C[C@H]2C[C@@H](Oc3cc(-c4cccnc4)ccc3-c3nnn[nH]3)CC[C@H]2CN1`, for which the pKi at Glutamate receptor 2 is 4.70; in [1], 5.00.
With `COc1cccc(O[C@H]2CC[C@H]3CN[C@H](C(=O)O)C[C@H]3C2)c1-c1nnn[nH]1`, the figures for the pKi (at Glutamate receptor 2; in series [1]) were 3.60 and 5.96, respectively.
With `O=C(O)[C@@H]1C[C@H]2C[C@@H](Nc3cccc(Cl)c3-c3nnn[nH]3)CC[C@H]2CN1`, the pKi at Glutamate receptor 2 is 5.19.
For the molecule `O=C(O)[C@@H]1C[C@H]2C[C@@H](Oc3ccc(Cl)cc3-c3nnn[nH]3)CC[C@H]2CN1`, the pKi (at Glutamate receptor 2; in [1]) was 6.40 throughout.
As to `O=C(O)[C@@H]1C[C@H]2C[C@@H](Oc3cc(-c4nccs4)ccc3-c3nnn[nH]3)CC[C@H]2CN1`, the figures for the pKi (on Glutamate receptor 2; in series [1]) were 5.66 and 6.05, respectively.
Regarding `O=C(O)[C@@H]1C[C@H]2C[C@@H](CCc3nn[nH]n3)CC[C@H]2CN1` [TEZAMPANEL ANHYDROUS], the Activity in the series on Rattus norvegicus [2] is recorded as 133%.
For `O=C(O)[C@@H]1C[C@H]2C[C@@H](Oc3cc(Oc4ccccc4)ccc3-c3nnn[nH]3)CC[C@H]2CN1`, the pKi at Glutamate receptor 2 was 3.47; in series [1], 4.77.
With `O=C(O)[C@@H]1C[C@H]2C[C@@H](Oc3c(F)cccc3-c3nnn[nH]3)CC[C@H]2CN1`, the pKi on Glutamate receptor 2 was 3.35; in series [1] it was 3.37.
The like results for `Cc1ccc(-c2nnn[nH]2)c(O[C@H]2CC[C@H]3CN[C@H](C(=O)O)C[C@H]3C2)c1` were, in that order, 5.28 and 5.96.
For the molecule `CC(C)Oc1ccc(-c2nnn[nH]2)c(O[C@H]2CC[C@H]3CN[C@H](C(=O)O)C[C@H]3C2)c1.Cl`, in the series on Rattus norvegicus [2], the Activity worked out at 76.9%. Moreover, the pKi at Glutamate receptor 2 was 4.92; in series [1], 6.05.
For the molecule `Cl.O=C(O)[C@@H]1C[C@H]2C[C@@H](Cc3ccccc3-c3nnn[nH]3)CC[C@H]2CN1`, the Activity in the series on Rattus norvegicus [2] is 73%. Also, the figures for the pKi (on Glutamate receptor 2; in series [1]) were 4.89 and 5.52, respectively.
As for `O=C(O)[C@@H]1C[C@H]2C[C@@H](Oc3cc(-c4ccc(Cl)cc4)ccc3-c3nnn[nH]3)CC[C@H]2CN1`, the pKi at Glutamate receptor 2 was 8.52; in series [1], 7.70.
Turning to `O=C(O)[C@@H]1C[C@H]2C[C@@H](Nc3ccccc3-c3nn[nH]n3)CC[C@H]2CN1`, in the series with Rattus norvegicus [2], the Activity is 124.8%. In addition, the pKi was 5.22 on Glutamate receptor 2 and 6.10 in series [1].
Turning to `Cl.O=C(O)c1ccc(C[C@H]2CC[C@H]3CN[C@H](C(=O)O)C[C@H]3C2)cc1`, the Activity with Rattus norvegicus [2] was found to be 67.8%.
As to `COc1ccc(-c2nnn[nH]2)c(O[C@H]2CC[C@H]3CN[C@H](C(=O)O)C[C@H]3C2)c1`, the results for the pKi (at Glutamate receptor 2; in series [1]) were 5.70 and 5.85, respectively.
`O=C(O)[C@@H]1C[C@H]2C[C@@H](Oc3cc(-c4cccs4)ccc3-c3nnn[nH]3)CC[C@H]2CN1`: the pKi is 5.36 at Glutamate receptor 2 and 7.05 in series [1].
As to `O=C(O)[C@@H]1C[C@H]2C[C@@H](Oc3ccc(F)cc3-c3nnn[nH]3)CC[C@H]2CN1`, the figures for the pKi (at Glutamate receptor 2; in [1]) were 5.57 and 6.05, respectively.
As for `Cl.O=C(O)[C@@H]1C[C@H]2C[C@@H](Oc3cc(OCc4ccccc4)ccc3-c3nnn[nH]3)CC[C@H]2CN1`, the Activity with Rattus norvegicus [2] is 81.7%. Besides, the negative-log Ki (pKi) is 4.77 at Glutamate receptor 2 and 6.80 in [1].
Regarding `O=C(O)[C@@H]1C[C@H]2C[C@@H](Oc3cc(-c4cccc(Cl)c4)ccc3-c3nnn[nH]3)CC[C@H]2CN1`, the values for the pKi (at Glutamate receptor 2; in series [1]) were 5.77 and 6.15, respectively.
As for `Cc1cccc(N[C@H]2CC[C@H]3CN[C@H](C(=O)O)C[C@H]3C2)c1-c1nnn[nH]1`, the pKi on Glutamate receptor 2 was 3.89; in series [1] it was 5.49.
Regarding `O=C(O)[C@@H]1C[C@H]2C[C@@H](Nc3ccc(F)cc3-c3nnn[nH]3)CC[C@H]2CN1`, at Glutamate receptor 2, the pKi is 4.92.
For the molecule `O=C(O)[C@@H]1C[C@H]2C[C@@H](Oc3ccccc3-c3nn[nH]n3)CC[C@H]2CN1`, the Activity in the series on Rattus norvegicus [2] came to 152.6%. Also, the values for the pKi (on Glutamate receptor 2; in [1]) were 4.80 and 5.92, respectively.
As for `COc1cccc(N[C@H]2CC[C@H]3CN[C@H](C(=O)O)C[C@H]3C2)c1-c1nnn[nH]1`, the pKi on Glutamate receptor 2 was 3.74; in [1], 4.89.
For `O=C(O)[C@@H]1C[C@H]2C[C@@H](Oc3cc(CCc4ccccc4)ccc3-c3nnn[nH]3)CC[C@H]2CN1`, the pKi at Glutamate receptor 2 was 5.02; in [1], 5.77.
The like results for `Cc1ccc(-c2nnn[nH]2)c(N[C@H]2CC[C@H]3CN[C@H](C(=O)O)C[C@H]3C2)c1` were, in that order, 5.21 and 5.54.
For `Cl.O=C(O)[C@@H]1C[C@H]2C[C@@H](Oc3cc(-c4ccccc4)ccc3-c3nnn[nH]3)CC[C@H]2CN1`, in the series with Rattus norvegicus [2], the Activity is reported as 100.8%. For the same molecule, the pKi at Glutamate receptor 2 is 5.64; in series [1] it was 7.00.
Consider `Cl.O=C(O)[C@@H]1C[C@H]2C[C@@H](Oc3cc(Cc4ccccc4)ccc3-c3nnn[nH]3)CC[C@H]2CN1`, for which, in the series with Rattus norvegicus [2], the Activity is listed as 89.8%. The negative logarithm of the Ki (pKi) at Glutamate receptor 2 is 5.02; in series [1], 6.80.
On to `O=C(O)[C@@H]1C[C@H]2C[C@@H](Nc3cc(-c4ccccc4)ccc3-c3nnn[nH]3)CC[C@H]2CN1`, for which the figures for the negative-log Ki (pKi) (on Glutamate receptor 2; in series [1]) were 5.46 and 5.96, respectively.
Turning to `Cl.O=C(O)[C@@H]1C[C@H]2C[C@@H](Oc3cccc(Cl)c3-c3nnn[nH]3)CC[C@H]2CN1`, the values for the Activity entry in the series with Rattus norvegicus [3], in the series on Rattus norvegicus [2] and with Rattus norvegicus [4] were “Toxic”, 80.2% and “Toxic”, respectively. In addition, the minimal effective dose in the series on Rattus norvegicus [5] was 1 mg/kg; in the series on Rattus norvegicus [7], 3 mg/kg. The pKi at Glutamate receptor 2 was 4.52; in series [1] it was 6.70. Further, the bioavailability in series [6] amounted to 42%. The molecule also registered a concentration at 1 h in series [8] of 1.02 µg/mL.

As usually defined, the pKi is −log10 of the Ki, conventionally taken in molar units. A word on the bioavailability: it is dose-corrected exposure relative to a reference, in per cent.

For the origin of these results see ChEMBL document CHEMBL3085631, “GluK1 antagonists from 6-(tetrazolyl)phenyl decahydroisoquinoline derivatives: in vitro profile and in vivo analgesic efficacy” (Bioorg Med Chem Lett, 2013).
